Tests used:
[1] = target: Beta Secretase enzyme (BACE) (Homo sapiens (Human), UniProt P56817); assay: In vitro enzymatic BACE FRET assay; format: biochemical; conditions: read-out: BACE1 Enzyme assay IC50
Cathepsin D (Cat D) = Cathepsin D (Cat D) (Homo sapiens (Human), UniProt P07339); assay: In vitro enzymatic Cathepsin D (Cat D) FRET assay; format: biochemical; conditions: read-out: CatD IC50
Abeta 40 = assay: In vivo inhibition of beta-secretase: Abeta 40 reduction in CSF and brain of the rat; conditions: after 4 hrs; for % reduction of rat CSF levels at 10 pmk / % reduction of rat brain levels at 10 mpk: 10 mpk
BACE = BACE (Homo sapiens (Human), UniProt P56817); assay: In vitro BACE cell-based assay (Aβ40 in conditioned medium, sandwich ELISA)
Chain of BACE (P56817 46-501, species assumed): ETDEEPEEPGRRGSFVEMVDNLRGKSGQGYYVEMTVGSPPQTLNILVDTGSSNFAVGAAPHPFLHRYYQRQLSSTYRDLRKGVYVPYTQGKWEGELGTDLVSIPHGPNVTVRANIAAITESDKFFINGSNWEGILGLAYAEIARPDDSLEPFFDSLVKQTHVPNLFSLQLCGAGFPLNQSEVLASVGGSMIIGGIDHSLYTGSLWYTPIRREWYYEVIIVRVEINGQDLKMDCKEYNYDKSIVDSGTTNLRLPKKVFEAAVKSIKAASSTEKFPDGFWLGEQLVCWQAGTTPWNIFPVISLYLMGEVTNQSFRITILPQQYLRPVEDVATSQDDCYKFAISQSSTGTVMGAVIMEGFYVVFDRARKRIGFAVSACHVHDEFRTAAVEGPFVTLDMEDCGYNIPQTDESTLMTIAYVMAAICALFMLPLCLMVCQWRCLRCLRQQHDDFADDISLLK

Chain of Cathepsin D (Cat D) (P07339 65-412, species assumed): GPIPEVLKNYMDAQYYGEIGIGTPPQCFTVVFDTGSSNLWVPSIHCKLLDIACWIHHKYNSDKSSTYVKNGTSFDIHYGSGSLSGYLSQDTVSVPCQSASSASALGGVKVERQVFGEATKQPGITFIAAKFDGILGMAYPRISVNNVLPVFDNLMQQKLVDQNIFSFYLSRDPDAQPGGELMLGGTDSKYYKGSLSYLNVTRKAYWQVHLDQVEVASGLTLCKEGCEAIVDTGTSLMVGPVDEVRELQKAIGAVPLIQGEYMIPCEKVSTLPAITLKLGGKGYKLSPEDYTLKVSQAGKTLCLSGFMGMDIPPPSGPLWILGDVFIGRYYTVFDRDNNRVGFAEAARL
Chain of Beta Secretase enzyme (BACE) (P56817 46-501): as the sequence (P56817 46-501, species assumed) above

| SMILES | IC50 [1] | IC50 (Cathepsin D (Cat D)) | IC50 (BACE) | % reduction of rat CSF levels at 10 pmk (Abeta 40; Abeta 40 in rat CSF) | % reduction of rat brain levels at 10 mpk (Abeta 40; Abeta 40 in rat brain) | % reduction of rat CSF levels (3 mpk) (Abeta 40; Abeta 40 in rat CSF, 3 mpk) | % reduction of rat brain levels (3 mpk) (Abeta 40; Abeta 40 in rat brain, 3 mpk) |
| --- | --- | --- | --- | --- | --- | --- | --- |
| NC1=N[C@@](c2cc(NC(=O)c3ccc(Br)cn3)ccc2F)(C(F)F)[C@H]2C[C@H]2O1 [Example 74, N-(3-((1R,5S,6R)-3-amino-5-(difluoromethyl)-2-oxa-4-azabicyclo[4.1.0]hept-3-en-5-yl)-4-fluorophenyl)-5-bromopicolinamide] | 0.0247 µM | 282 µM | 0.0181 µM | 56% | 46% | – | – |
| NC1=N[C@](CF)(c2cc(NC(=O)c3ncc(Cl)cc3Cl)ccc2F)[C@H]2C[C@H]2O1 [Example 193] | 0.0449 µM | 875 µM | 0.0108 µM | 75% | 67% | – | – |
| COc1cc(C#N)cnc1C(=O)Nc1ccc(F)c([C@@]2(C(F)F)N=C(N)O[C@@H]3C[C@@H]32)c1 [Example 45, N-(3-((1R,5S,6R)-3-amino-5-(difluoromethyl)-2-oxa-4-azabicyclo[4.1.0]hept-3-en-5-yl)-4-fluorophenyl)-5-cyano-3-methoxypicolinamide] | 0.0555 µM | 3450 µM | 0.0372 µM | 31% | 6% | – | – |
| N#Cc1cnc(C(=O)Nc2ccc(F)c([C@@]3(CF)N=C(N)O[C@@H]4C[C@@H]43)c2)c(Cl)c1 [Example 228, N-(3-((1R,5S,6R)-3-amino-5-(fluoromethyl)-2-oxa-4-azabicyclo[4.1.0]hept-3-en-5-yl)-4-fluorophenyl)-3-chloro-5-cyanopicolinamide] | 0.0419 µM | 1010 µM | 0.0059 µM | 54% | 33% | – | – |
| NC1=N[C@@](c2cc(NC(=O)c3ncc(Cl)cc3Cl)ccc2F)(C(F)F)[C@H]2C[C@H]2O1 [Example 71, N-(3-((1R,5S,6R)-3-amino-5-(difluoromethyl)-2-oxa-4-azabicyclo[4.1.0]hept-3-en-5-yl)-4-fluorophenyl)-3,5-dichloropicolinamide] | – | 478 µM | – | 80% | 73% | – | – |
| N#Cc1cnc(C(=O)Nc2ccc(F)c([C@@]3(C(F)F)N=C(N)O[C@@H]4C[C@@H]43)c2)c(Cl)c1 [Example 66, N-(3-((1R,5S,6R)-3-amino-5-(difluoromethyl)-2-oxa-4-azabicyclo[4.1.0]hept-3-en-5-yl)-4-fluorophenyl)-3-chloro-5-cyanopicolinamide] | – | 825 µM | – | 59% | 42% | – | – |
| Cc1cc(NC(=O)c2ccc(C#N)cn2)cc([C@@]2(C(F)F)N=C(N)O[C@@H]3C[C@@H]32)c1F [Example 390, N-(3-((1R,5S,6R)-3-amino-5-(difluoromethyl)-2-oxa-4-azabicyclo[4.1.0]hept-3-en-5-yl)-4-fluoro-5-methylphenyl)-5-cyanopicolinamide] | – | – | – | 71% | 54% | – | – |
| N#Cc1ccc(C(=O)Nc2ccc(Cl)c([C@@]3(C(F)F)N=C(N)O[C@@H]4C[C@@H]43)c2)nc1 [Example 93, N-(3-((1R,5S,6R)-3-amino-5-(difluoromethyl)-2-oxa-4-azabicyclo[4.1.0]hept-3-en-5-yl)-4-chlorophenyl)-5-cyanopicolinamide] | – | 1300 µM | – | 76% | 83% | – | – |
| NC1=N[C@@](c2cc(NC(=O)c3ncc(Br)cn3)ccc2F)(C(F)F)[C@H]2C[C@H]2O1 [Example 267, N-(3-((1R,5S,6R)-3-amino-5-(difluoromethyl)-2-oxa-4-azabicyclo[4.1.0]hept-3-en-5-yl)-4-fluorophenyl)-5-bromopyrimidine-2-carboxamide] | – | – | 0.015 µM | −1% | 11% | – | – |
| N#Cc1ccc(C(=O)Nc2ccc(F)c([C@@]3(C(F)F)N=C(N)O[C@@H]4C[C@@H]43)c2)nc1 [Example 77, N-(3-((1R,5S,6R)-3-amino-5-(difluoromethyl)-2-oxa-4-azabicyclo[4.1.0]hept-3-en-5-yl)-4-fluorophenyl)-5-cyanopicolinamide] | – | 698 µM | – | 78% | 71% | 66 (3 mpk) % | 46 (3 mpk) % |
| NC1=N[C@@](c2cc(NC(=O)c3nn(C(F)F)cc3Cl)ccc2F)(C(F)F)[C@H]2C[C@H]2O1 [Example 163, N-(3-((1R,5S,6R)-3-amino-5-(difluoromethyl)-2-oxa-4-azabicyclo[4.1.0]hept-3-en-5-yl)-4-fluorophenyl)-4-chloro-1-(difluoromethyl)-1H-pyrazole-3-carboxamide] | – | 464 µM | – | 33% | 14% | – | – |
| C#C[C@H](C)Oc1cnc(C(=O)Nc2ccc(F)c([C@@]3(C(F)F)N=C(N)O[C@@H]4C[C@@H]43)c2)cn1 [Example 162, N-(3-((1R,5S,6R)-3-amino-5-(difluoromethyl)-2-oxa-4-azabicyclo[4.1.0]hept-3-en-5-yl)-4-fluorophenyl)-5-((S)-but-3-yn-2-yloxy)pyrazine-2-carboxamide] | – | 1060 µM | – | 11% | −7% | – | – |
| NC1=N[C@](CF)(c2cc(NC(=O)c3nn(C(F)F)cc3Cl)ccc2F)[C@H]2C[C@H]2O1 [Example 164, N-(3-((1R,5S,6R)-3-amino-5-(fluoromethyl)-2-oxa-4-azabicyclo[4.1.0]hept-3-en-5-yl)-4-fluorophenyl)-4-chloro-1-(difluoromethyl)-1H-pyrazole-3-carboxamide] | 0.0232 µM | 950 µM | 0.0109 µM | – | – | – | – |
| NC1=N[C@](CF)(c2nc(NC(=O)c3ccc(Cl)cn3)ccc2F)[C@H]2C[C@H]2O1 (stereo in doubt) [Example 105, N-(6-((1R,5S,6R)-3-amino-5-(fluoromethyl)-2-oxa-4-azabicyclo[4.1.0]hept-3-en-5-yl)-5-fluoropyridin-2-yl)-5-chloropicolinamide] | 39.3 µM | 1620 µM | 2.1 µM | – | – | – | – |
| C[C@]1(c2cc(NC(=O)c3ccc(Cl)cn3)ccc2F)N=C(N)O[C@@H]2C[C@@H]21 [Example 68] | 0.065 µM | 476 µM | 0.0063 µM | – | – | – | – |
| Cc1cc(OC(F)F)cnc1C(=O)Nc1cc(F)c(Cl)c([C@@]2(CF)N=C(N)O[C@@H]3C[C@@H]32)c1 [Example 158, N-(3-((1R,5S,6R)-3-amino-5-(fluoromethyl)-2-oxa-4-azabicyclo[4.1.0]hept-3-en-5-yl)-4-chloro-5-fluorophenyl)-5-(difluoromethoxy)-3-methylpicolinamide] | 0.0403 µM | 230 µM | 0.0383 µM | – | – | – | – |

Further lines, with some results ahead:

| IC50 [1] | IC50 (Cathepsin D (Cat D)) | IC50 (BACE) | SMILES | % reduction of rat CSF levels at 10 pmk (Abeta 40; Abeta 40 in rat CSF) | % reduction of rat brain levels at 10 mpk (Abeta 40; Abeta 40 in rat brain) | % reduction of rat CSF levels (3 mpk) (Abeta 40; Abeta 40 in rat CSF, 3 mpk) | % reduction of rat brain levels (3 mpk) (Abeta 40; Abeta 40 in rat brain, 3 mpk) |
| --- | --- | --- | --- | --- | --- | --- | --- |
| 0.043 µM | 747 µM | 0.0551 µM | NC1=N[C@@](c2cc(NC(=O)c3cnc(OCC4CC4)cn3)ccc2F)(C(F)F)[C@H]2C[C@H]2O1 [Example 415, N-(3-((1R,5S,6R)-3-amino-5-(difluoromethyl)-2-oxa-4-azabicyclo[4.1.0]hept-3-en-5-yl)-4-fluorophenyl)-5-(cyclopropylmethoxy)pyrazine-2-carboxamide] | 27% | 14% | – | – |
| 0.0377 µM | 442 µM | 0.0179 µM | NC1=N[C@@](c2cc(NC(=O)c3ccc(OC(F)F)cn3)ccc2F)(C(F)F)[C@H]2C[C@H]2O1 [Example 312, N-(3-((1R,5S,6R)-3-amino-5-(difluoromethyl)-2-oxa-4-azabicyclo[4.1.0]hept-3-en-5-yl)-4-fluorophenyl)-5-(difluoromethoxy) picolinamide] | 30% | −1% | – | – |
| 0.0522 µM | 355 µM | 0.0359 µM | COc1ccc(C(=O)Nc2cc(C)c(F)c([C@@]3(C(F)F)N=C(N)O[C@@H]4C[C@@H]43)c2)nc1 [Example 304, N-(3-((1R,5S,6R)-3-amino-5-(difluoromethyl)-2-oxa-4-azabicyclo[4.1.0]hept-3-en-5-yl)-4-fluoro-5-methylphenyl)-5-methoxypicolinamide] | 41% | 20% | – | – |
| – | 335 µM | – | Cc1cc(Cl)cnc1C(=O)Nc1cc(C)c(F)c([C@@]2(C(F)F)N=C(N)O[C@@H]3C[C@@H]32)c1 [Example 303, N-(3-((1R,5S,6R)-3-amino-5-(difluoromethyl)-2-oxa-4-azabicyclo[4.1.0]hept-3-en-5-yl)-4-fluoro-5-methylphenyl)-5-chloro-3-methylpicolinamide] | 57% | 50% | – | – |
| 0.327 µM | 748 µM | 0.514 µM | CC1(C#Cc2ccc(C(=O)Nc3ccc(F)c([C@@]4(C(F)F)N=C(N)O[C@@H]5C[C@@H]54)c3)nc2)COC1 [Example 409, N-(3-((1R,5S,6R)-3-amino-5-(difluoromethyl)-2-oxa-4-azabicyclo[4.1.0]hept-3-en-5-yl)-4-fluorophenyl)-5-((3-methyloxetan-3-yl)ethynyl)picolinamide] | – | – | – | – |
| 9.51 µM | 904 µM | 2.64 µM | N#Cc1ccc(C(=O)Nc2ccc(Cl)c([C@]3(CF)N=C(N)O[C@H]4C[C@H]43)c2)nc1 [Example 278, N-(3-((1 S,5R,6S)-3-amino-5-(fluoromethyl)-2-oxa-4-azabicyclo[4.1.0]hept-3-en-5-yl)-4-chlorophenyl)-5-cyanopicolinamide] | – | – | – | – |
| 0.196 µM | 650 µM | 0.0243 µM | COc1ccc(C(=O)Nc2ccc(Cl)c([C@@]3(CF)N=C(N)O[C@@H]4C[C@@H]43)c2)nc1 [Example 282, N-(3-((1R,5S,6R)-3-amino-5-(fluoromethyl)-2-oxa-4-azabicyclo[4.1.0]hept-3-en-5-yl)-4-chlorophenyl)-5-methoxypicolinamide] | – | – | – | – |
